target: T1, human mPGES-1 (Homo sapiens, UniProt O14684); experiment: Microsomal prostaglandin E synthase biochemical assay; conditions: microsome preparation containing human mPGES-1; substrate PGH2 10.8 μM, GSH 2.5 mM, pH 6.8; PGE2 by HTRF; average of at least n=2
T1 construct: host or cells: microsomes
T1 sequence (O14684 1-152): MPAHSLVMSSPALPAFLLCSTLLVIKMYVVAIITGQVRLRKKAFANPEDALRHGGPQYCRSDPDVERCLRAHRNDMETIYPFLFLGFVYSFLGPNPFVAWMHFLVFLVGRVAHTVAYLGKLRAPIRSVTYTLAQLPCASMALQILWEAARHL
Description: Compounds were tested as inhibitors of microsomal prostaglandin E synthase activity in microsomal prostaglandin E synthase assays and whole cell assays. These assays measure prostaglandin E2 (PGE2) synthesis which is taken as a measure of prostaglandin E synthase activity. Microsomal prostaglandin E synthase biochemical assays used microsomal prostaglandin E synthase-1 in microsomal preparations. The source of the microsomes can be for example interleukin-1β-stimulated human A549 cells (which express human mPGES-1) or Sf9 cells transfected with plasmids encoding human mPGES-1 cDNA.
A solution of test compound was added to a diluted microsome preparation containing is human mPGES-1 and pre-incubated for 15 minutes in potassium phosphate buffer pH 6.8 with cofactor glutathione (GSH). Corresponding solutions without test compound were used as positive controls, and corresponding solutions without test compound and without microsomes were used as negative controls. The enzymatic reaction was then started by addition of the substrate PGH2 in an organic solution (dry acetonitrile).
The reaction was stopped after one minute by adding an acidic solution (pH 1.9) of ferric chloride and citrate (final concentrations 7 mM and 47 mM respectively), by which the PGH2 was sequestered (the PGH2 is reduced to mainly 12-hydroxy heptadecatrineoic acid (12-HHT) which is not detected by the subsequent PGE2 detection step). The resulting solution was then pH neutralized by addition of potassium phosphate buffer, prior to diluting an aliquot of the resulting solution in a weak potassium phosphate buffer (50 mM, pH 6.8) containing 0.2% BSA (w/v). […] The PGE2 formed was quantified by use of a commercial HTRF based kit (catalogue #62PG2PEC or #62P2APEC from Cisbio International). 100% activity was defined as the PGE2 production in positive controls subtracted by the PGE2 production in the negative controls. IC50 values were then determined using standard procedures.

First: NS(=O)(=O)c1ccccc1S(=O)(=O)NC(=O)c1ccc(C#CC(C2CC2)C2CC2)c(OCCC(F)(F)F)c1 [Example 36, 4-(3,3-Dicyclopropylprop-1-ynyl)-N-(2-sulfamoylphenylsulfonyl)-3-(3,3,3-trifluoropropoxy)benzamide]
Second: NS(=O)(=O)c1ccccc1S(=O)(=O)NC(=O)c1ccc(C#CC2CCCC2)c(OCCC(F)(F)F)c1 [Example 66, 4-(Cyclopentylethynyl)-N-(2-sulfamoylphenylsulfonyl)-3-(3,3,3-trifluoropropoxy)benzamide]
The IC50 of the first is 1.9-fold higher: 18 nM for the first, 9.4 nM for the second.

Going from `CCCC(C)C#Cc1ccc(C(=O)NS(=O)(=O)c2ccccc2S(N)(=O)=O)cc1OC` (stereo not drawn) [Example 37, 3-Methoxy-4-(3-methylhex-1-ynyl)-N-(2-sulfamoylphenylsulfonyl)benzamide] to `CCCC(C)C#Cc1ccc(C(=O)NS(=O)(=O)c2ccccc2S(N)(=O)=O)cc1` (stereo not drawn) [Example 40, 4-(3-Methylhex-1-ynyl)-N-(2-sulfamoylphenylsulfonyl)benzamide], the IC50 falls from 35 nM to 14 nM (2.5-fold).

Going from `COc1cc(C(=O)NS(=O)(=O)c2ccccc2S(N)(=O)=O)ccc1C#Cc1ccc(C(F)(F)F)cc1` [Example 38, 3-Methoxy-N-(2-sulfamoylphenylsulfonyl)-4-((4-(trifluoromethyl)phenyl)ethynyl)benzamide] to `NS(=O)(=O)c1ccccc1S(=O)(=O)NC(=O)c1ccc(C#Cc2ccc(C(F)(F)F)cc2)c(CO)c1` [Example 39, 3-(Hydroxymethyl)-N-(2-sulfamoylphenylsulfonyl)-4-((4-(trifluoromethyl)phenyl)ethynyl)benzamide], the IC50 rises from 7.3 nM to 22 nM (3-fold).

`NS(=O)(=O)c1ccccc1S(=O)(=O)NC(=O)c1ccc(C#Cc2ccc(C(F)(F)F)cc2)cc1` [Example 41, N-(2-Sulfamoylphenylsulfonyl)-4-((4-(trifluoromethyl)phenyl)ethynyl)benzamide] and `NS(=O)(=O)c1ccccc1S(=O)(=O)NC(=O)c1ccc(C#Cc2ccc(C(F)(F)F)cc2)nc1` [Example 43] are within 1.5-fold of each other in IC50: 5.7 nM for the first, 6.5 nM for the second.

Compared with `NS(=O)(=O)c1ccccc1S(=O)(=O)NC(=O)c1ccc(C#CCCCCCl)cc1` [Example 42, 4-(6-Chlorohex-1-ynyl)-N-(2-sulfamoylphenylsulfonyl)benzamide], `NS(=O)(=O)c1ccccc1S(=O)(=O)NC(=O)c1cnc(C#Cc2ccc(C(F)(F)F)cc2)c(F)c1` [Example 47, 5-Fluoro-N-(2-sulfamoylphenylsulfonyl)-6-((4-(trifluoromethyl)phenyl)ethynyl)nicotinamide] is 5.7-fold lower in IC50: 37 nM for the first, 6.5 nM for the second. The second is the more potent here.

First: CC(C)C#Cc1ncc(C(=O)NS(=O)(=O)c2ccccc2S(N)(=O)=O)cc1Cl [Example 44, 5-Chloro-6-(3-methylbut-1-ynyl)-N-(2-sulfamoylphenylsulfonyl)nicotinamide]
Second: CC(C)C#Cc1ncc(C(=O)NS(=O)(=O)c2ccccc2S(N)(=O)=O)cc1F [Example 46, 5-Fluoro-6-(3-methylbut-1-ynyl)-N-(2-sulfamoylphenylsulfonyl)nicotinamide]
The IC50 of the first is 3.4-fold lower: 59 nM for the first, 200 nM for the second. The first is the more potent here.

`CC(C)C#Cc1ccc(C(=O)NS(=O)(=O)c2ccccc2S(N)(=O)=O)cc1OCCC(F)(F)F` [Example 45, 4-(3-Methylbut-1-ynyl)-N-(2-sulfamoylphenylsulfonyl)-3-(3,3,3-trifluoropropoxy)benzamide] and `CC(C)C#Cc1ccc(C(=O)NS(=O)(=O)c2ccccc2S(N)(=O)=O)cc1OCCCC(F)(F)F` [Example 64, 4-(3-Methylbut-1-ynyl)-N-(2-sulfamoylphenylsulfonyl)-3-(4,4,4-trifluorobutoxy)benzamide] are within 1.5-fold of each other in IC50: 18 nM for the first, 15 nM for the second.

`NS(=O)(=O)c1ccccc1S(=O)(=O)NC(=O)c1cnc(C#Cc2ccc(C(F)(F)F)cc2)c(OCCC(F)(F)F)c1` [Example 48] and `CC(C)C#Cc1ncc(C(=O)NS(=O)(=O)c2ccccc2S(N)(=O)=O)cc1OCCC(F)(F)F` [Example 49, 6-(3-Methylbut-1-ynyl)-N-(2-sulfamoylphenylsulfonyl)-5-(3,3,3-trifluoropropoxy)nicotinamide] are within 1.5-fold of each other in IC50: 10 nM for the first, 13 nM for the second.

Compared with `Cc1cc(C(=O)NS(=O)(=O)c2ccccc2S(N)(=O)=O)ccc1C#CC(C)C` [Example 50, 3-Methyl-4-(3-methylbut-1-ynyl)-N-(2-sulfamoylphenylsulfonyl)benzamide], `CC(C)C#Cc1ccc(C(=O)NS(=O)(=O)c2ccccc2S(N)(=O)=O)cc1OC(F)(F)F` [Example 54, 4-(3-Methylbut-1-ynyl)-N-(2-sulfamoylphenylsulfonyl)-3-(trifluoromethoxy)benzamide] is 1.6-fold higher in IC50: 17 nM for the first, 28 nM for the second.

`CC(C)C#Cc1ccc(C(=O)NS(=O)(=O)c2ccccc2S(N)(=O)=O)cc1OCCOCC(F)(F)F` [Example 51, 4-(3-Methylbut-1-ynyl)-N-(2-sulfamoylphenylsulfonyl)-3-(2-(2,2,2-trifluoroethoxy)ethoxy)benzamide] and `CC(C)C#Cc1ccc(C(=O)NS(=O)(=O)c2ccccc2S(N)(=O)=O)cc1OCC(F)(F)F` [Example 53, 4-(3-Methylbut-1-ynyl)-N-(2-sulfamoylphenylsulfonyl)-3-(2,2,2-trifluoroethoxy)benzamide] are within 1.5-fold of each other in IC50: 26 nM for the first, 25 nM for the second.

First: CC(C)C#Cc1ccc(C(=O)NS(=O)(=O)c2ccccc2S(N)(=O)=O)cc1OCC(F)F [Example 52, 3-(2,2-Difluoroethoxy)-4-(3-methylbut-1-ynyl)-N-(2-sulfamoylphenylsulfonyl)benzamide]
Second: CC(C)C#Cc1ccc(C(=O)NS(=O)(=O)c2ccccc2S(N)(=O)=O)cc1OCC(F)(F)C(F)F [Example 58, 4-(3-Methylbut-1-ynyl)-N-(2-sulfamoylphenylsulfonyl)-3-(2,2,3,3-tetrafluoropropoxy)benzamide]
The IC50 of the first is 2.1-fold higher: 50 nM for the first, 24 nM for the second. The second is the more potent here.

`CC(C)C#Cc1ccc(C(=O)NS(=O)(=O)c2ccccc2S(N)(=O)=O)cc1COCCC(F)(F)F` [Example 55, 4-(3-Methylbut-1-ynyl)-N-(2-sulfamoylphenylsulfonyl)-3-((3,3,3-trifluoropropoxy)methyl)benzamide] and `CC(C)C#Cc1ccc(C(=O)NS(=O)(=O)c2ccccc2S(N)(=O)=O)cc1COCC(F)(F)F` [Example 56, 4-(3-Methylbut-1-ynyl)-N-(2-sulfamoylphenylsulfonyl)-3-((2,2,2-trifluoroethoxy)methyl)benzamide] are within 1.5-fold of each other in IC50: 80 nM for the first, 100 nM for the second.

`NS(=O)(=O)c1ccccc1S(=O)(=O)NC(=O)c1ccc(-c2cc3ccccc3o2)c(F)c1` [Example 57, 4-(Benzofuran-2-yl)-3-fluoro-N-(2-sulfamoylphenylsulfonyl)benzamide] and `NS(=O)(=O)c1ccccc1S(=O)(=O)NC(=O)c1ccc(-c2cc3ccccc3o2)c(OCCC(F)(F)F)c1` [Example 59, 4-(Benzofuran-2-yl)-N-(2-sulfamoylphenylsulfonyl)-3-(3,3,3-trifluoropropoxy)benzamide] are the same in IC50: 8.5 nM for the first, 8.5 nM for the second.

`CC(C)(C)C#Cc1ccc(C(=O)NS(=O)(=O)c2ccccc2S(N)(=O)=O)cc1OCCC(F)(F)F` [Example 60, 4-(3,3-Dimethylbut-1-ynyl)-N-(2-sulfamoylphenylsulfonyl)-3-(3,3,3-trifluoropropoxy)benzamide] and `CC(C)(C)C#Cc1ccc(C(=O)NS(=O)(=O)c2ccccc2S(N)(=O)=O)cc1OCCOCC(F)(F)F` [Example 61, 4-(3,3-Dimethylbut-1-ynyl)-N-(2-sulfamoylphenylsulfonyl)-3-(2-(2,2,2-trifluoroethoxy)ethoxy)benzamide] are within 1.5-fold of each other in IC50: 30 nM for the first, 27 nM for the second.

`NS(=O)(=O)c1ccccc1S(=O)(=O)NC(=O)c1ccc(-c2cc3ccccc3o2)c(OCCOCC(F)(F)F)c1` [Example 62, 4-(Benzofuran-2-yl)-N-(2-sulfamoylphenylsulfonyl)-3-(2-(2,2,2-trifluoroethoxy)ethoxy)benzamide] and `NS(=O)(=O)c1ccccc1S(=O)(=O)NC(=O)c1ccc(C#Cc2ccccc2)c(OCCOCC(F)(F)F)c1` [Example 63, 4-(Phenylethynyl)-N-(2-sulfamoylphenylsulfonyl)-3-(2-(2,2,2-trifluoroethoxy)ethoxy)benzamide] are within 1.5-fold of each other in IC50: 9.1 nM for the first, 9.3 nM for the second.

First: NS(=O)(=O)c1ccccc1S(=O)(=O)NC(=O)c1ccc(C#Cc2ccccc2)c(OCCC(F)(F)F)c1 [Example 65, 4-(Phenylethynyl)-N-(2-sulfamoylphenylsulfonyl)-3-(3,3,3-trifluoropropoxy)benzamide]
Second: NS(=O)(=O)c1ccccc1S(=O)(=O)NC(=O)c1ccc(C#CC2CCCC2)c(OCCOCC(F)(F)F)c1 [Example 67, 4-(Cyclopentylethynyl)-N-(2-sulfamoylphenylsulfonyl)-3-(2-(2,2,2-trifluoroethoxy)ethoxy)benzamide]
The IC50 of the first is 1.5-fold lower: 6.2 nM for the first, 9.6 nM for the second.

With `NS(=O)(=O)c1ccccc1S(=O)(=O)NC(=O)c1ccc(C#CC2CCCC2)c(OCCC(F)F)c1` [Example 68, 4-(Cyclopentylethynyl)-3-(3,3-difluoropropoxy)-N-(2-sulfamoylphenylsulfonyl)benzamide] the IC50 was 12 nM.
